Experimental data as given in PubChem BioAssay (NCI).
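Each compound was tested at five concentrations against cells in 96-well plates for 48 hours. At the TGI there is no net growth.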

Tests used:
Assay in all cases: inhibition of tumour cell growth, NCI panel, 48 h
[1] = tested on: SNB-78 CNS
[2] = tested on: RXF 393 renal
[3] = tested on: EKVX NSCLC
[4] = tested on: DMS 273 small cell lung
[5] = tested on: RPMI-8226 leukemia
[6] = tested on: LOX IMVI melanoma
[7] = tested on: SNB-19 CNS
[8] = tested on: NCI-H23 lung
[9] = tested on: HCT-116 colon
[10] = tested on: CCRF-CEM leukemia
[11] = tested on: KM12 colon
[12] = tested on: SN12C renal
[13] = tested on: DMS 114 small cell lung
[14] = tested on: SNB-75 CNS
[15] = tested on: U251 CNS
[16] = tested on: KM20L2 colon
[17] = tested on: SK-OV-3 ovarian
[18] = tested on: COLO 205 colon
[19] = tested on: SK-MEL-28 melanoma
[20] = tested on: SR leukemia
[21] = tested on: OVCAR-4 ovarian
[22] = tested on: HOP-62 NSCLC
[23] = tested on: SF-295 CNS
[24] = tested on: SF-539 CNS
[25] = tested on: UO-31 renal
[26] = tested on: HL-60(TB) leukemia
[27] = tested on: 786-0 renal
[28] = tested on: HT29 colon
[29] = tested on: M19-MEL melanoma
[30] = tested on: UACC-257 melanoma
[31] = tested on: SK-MEL-2 melanoma
[32] = tested on: SK-MEL-5 melanoma
[33] = tested on: OVCAR-8 ovarian
[34] = tested on: NCI-H522 lung
[35] = tested on: MOLT-4 leukemia
[36] = tested on: HCT-15 colon
[37] = tested on: K-562 leukemia
[38] = tested on: DLD-1 colon
[39] = tested on: HOP-18 NSCLC
[40] = tested on: NCI-H226 lung
[41] = tested on: A498 renal
[42] = tested on: LXFL 529 NSCLC
[43] = tested on: ACHN renal
[44] = tested on: SW-620 colon
[45] = tested on: OVCAR-3 ovarian
[46] = tested on: UACC-62 melanoma
[47] = tested on: MALME-3M melanoma
[48] = tested on: A549 NSCLC
[49] = tested on: M14 melanoma
[50] = tested on: IGROV1 ovarian
[51] = tested on: SF-268 CNS
[52] = tested on: XF 498 CNS
[53] = tested on: CAKI-1 renal
[54] = tested on: OVCAR-5 ovarian
[55] = tested on: HCC-2998 colon
[56] = tested on: TK-10 renal
[57] = tested on: NCI-H460 lung
[58] = tested on: HOP-92 NSCLC

## CN1C(=O)N(c2nc3ccccc3[nH]2)C(C)(C)C1=O
[1]
  TGI: > 100 µM
[2]
  TGI: > 100 µM
[3]
  TGI: > 100 µM
[4]
  TGI: > 100 µM
[5]
  TGI: > 100 µM
[6]
  TGI: > 100 µM
[7]
  TGI: > 100 µM
[8]
  TGI: > 100 µM
[9]
  TGI: > 100 µM
[10]
  TGI: > 100 µM
[11]
  TGI: > 100 µM
[12]
  TGI: > 100 µM
[13]
  TGI: > 100 µM
[14]
  TGI: > 100 µM
[15]
  TGI: > 100 µM
[16]
  TGI: > 100 µM
[17]
  TGI: > 100 µM
[18]
  TGI: > 100 µM
[19]
  TGI: > 100 µM
[20]
  TGI: > 100 µM
[21]
  TGI: > 100 µM
[22]
  TGI: > 100 µM
[23]
  TGI: > 100 µM
[24]
  TGI: > 100 µM
[25]
  TGI: > 100 µM
[26]
  TGI: > 100 µM
[27]
  TGI: > 100 µM
[28]
  TGI: > 100 µM
[29]
  TGI: > 100 µM
[30]
  TGI: > 100 µM
[31]
  TGI: > 100 µM
[32]
  TGI: > 100 µM
[33]
  TGI: > 100 µM
[34]
  TGI: > 100 µM
[35]
  TGI: > 100 µM
[36]
  TGI: > 100 µM
[37]
  TGI: > 100 µM
[38]
  TGI: > 100 µM
[39]
  TGI: > 100 µM
[40]
  TGI: > 100 µM
[41]
  TGI: > 100 µM
[42]
  TGI: > 100 µM
[43]
  TGI: > 100 µM
[44]
  TGI: > 100 µM
[45]
  TGI: > 100 µM
[46]
  TGI: > 100 µM
[47]
  TGI: > 100 µM
[48]
  TGI: > 100 µM
[49]
  TGI: > 100 µM
[50]
  TGI: > 100 µM
[51]
  TGI: > 100 µM
[52]
  TGI: > 100 µM

## CN(C)CCNC(=O)c1cccc2c1nc(-c1ccncc1)c1ccccc12
[1]
  TGI: 23.2 µM
[2]
  TGI: 7.55 µM
[53]
  TGI: 24.5 µM
[3]
  TGI: 10 µM
[4]
  TGI: 12.3 µM
[6]
  TGI: 3.66 µM
[7]
  TGI: 27.2 µM
[8]
  TGI: 13.1 µM
[9]
  TGI: 9.23 µM
[10]
  TGI: > 100 µM
[11]
  TGI: 25.6 µM
[12]
  TGI: 14.8 µM
[13]
  TGI: 14.2 µM
[54]
  TGI: 23.7 µM
[14]
  TGI: 15.8 µM
[55]
  TGI: 16.7 µM
[56]
  TGI: 7.77 µM
[57]
  TGI: 3.05 µM
[15]
  TGI: 17 µM
[58]
  TGI: 9.77 µM
[17]
  TGI: 24.7 µM
[18]
  TGI: 9.66 µM
[19]
  TGI: 17.6 µM
[21]
  TGI: 15.6 µM
[22]
  TGI: 19.5 µM
[23]
  TGI: 15.9 µM
[24]
  TGI: 10.7 µM
[25]
  TGI: 6.08 µM
[26]
  TGI: > 100 µM
[27]
  TGI: 17.8 µM
[28]
  TGI: 19.4 µM
[29]
  TGI: 11.9 µM
[30]
  TGI: 12.6 µM
[31]
  TGI: 19.1 µM
[32]
  TGI: 6.8 µM
[33]
  TGI: 41.9 µM
[35]
  TGI: > 100 µM
[36]
  TGI: 13.4 µM
[37]
  TGI: > 100 µM
[38]
  TGI: 14.2 µM
[39]
  TGI: 51.1 µM
[40]
  TGI: 10.5 µM
[41]
  TGI: 7.67 µM
[43]
  TGI: 10.6 µM
[44]
  TGI: 19.1 µM
[45]
  TGI: 30.4 µM
[46]
  TGI: 6.44 µM
[48]
  TGI: 12.6 µM
[49]
  TGI: 16.8 µM
[50]
  TGI: 20.1 µM
[51]
  TGI: 19.7 µM
